Tests used:
Assay in all cases: relative viability (nuclei count vs DMSO), 5 days (fraction); higher = more cells survive
Afatinib = compound: CN(C)C/C=C/C(=O)Nc1cc2c(Nc3ccc(F)c(Cl)c3)ncnc2cc1O[C@H]1CCOC1 [Afatinib]
In short: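 Viability was read as treated-well nuclei divided by vehicle-well nuclei, using the median across plates. Lung cancer cell lines in 1536-well plates were kept overnight at 37 °C, pinned with five √10-spaced library-drug doses, and after 5 days were Hoechst-stained, imaged at 4× and counted in MetaXpress. Plates passed only with control CV below 25% and at least one doubling.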

Afatinib + Trametinib = compound: CN(C)C/C=C/C(=O)Nc1cc2c(Nc3ccc(F)c(Cl)c3)ncnc2cc1O[C@H]1CCOC1 [Afatinib] + CC(=O)Nc1cccc(-n2c(=O)n(C3CC3)c(=O)c3c(Nc4ccc(I)cc4F)n(C)c(=O)c(C)c32)c1 [Trametinib] (partner 0.02 µM)
In short: (§1)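 Relative viability equals treated-well nuclei counts divided by vehicle-well nuclei counts. Counts came from 4× images of lung cancer cell lines grown in 1536-well plates for 5 days after pin-tool dosing on the day after seeding. Dosing used one drug alone or a fixed anchor-drug dose plus five library-drug doses (not always all listed) in √10 steps, and values are medians of duplicate plates.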

Afatinib + OSI-027 = compound: CN(C)C/C=C/C(=O)Nc1cc2c(Nc3ccc(F)c(Cl)c3)ncnc2cc1O[C@H]1CCOC1 [Afatinib] + COc1cccc2cc(-c3nc([C@H]4CC[C@H](C(=O)O)CC4)n4ncnc(N)c34)[nH]c12 [OSI-027] (partner 0.5 µM)
In short: as §1

Afatinib + Phenformin = compound: CN(C)C/C=C/C(=O)Nc1cc2c(Nc3ccc(F)c(Cl)c3)ncnc2cc1O[C@H]1CCOC1 [Afatinib] + N=C(N)NC(=N)NCCc1ccccc1 [Phenformin] (partner 250 µM)
In short: as §1

NCI-H2342
relative viability (Afatinib; 0.005 µM): 0.896 | relative viability (Afatinib; 0.01581 µM): 0.936 | relative viability (Afatinib; 0.05 µM): 0.889 | relative viability (Afatinib; 0.1581 µM): 0.826 | relative viability (Afatinib; 0.5 µM): 0.726 | relative viability (Afatinib + Trametinib; first compound 0.005 µM): 0.761 | relative viability (Afatinib + Trametinib; first compound 0.01581 µM): 0.723 | relative viability (Afatinib + Trametinib; first compound 0.05 µM): 0.726 | relative viability (Afatinib + Trametinib; first compound 0.1581 µM): 0.74 | relative viability (Afatinib + Trametinib; first compound 0.5 µM): 0.672 | relative viability (Afatinib + OSI-027; first compound 0.005 µM): 0.669 | relative viability (Afatinib + OSI-027; first compound 0.01581 µM): 0.539 | relative viability (Afatinib + OSI-027; first compound 0.05 µM): 0.546 | relative viability (Afatinib + OSI-027; first compound 0.1581 µM): 0.558 | relative viability (Afatinib + OSI-027; first compound 0.5 µM): 0.485 | relative viability (Afatinib + Phenformin; first compound 0.005 µM): 0.641 | relative viability (Afatinib + Phenformin; first compound 0.01581 µM): 0.488 | relative viability (Afatinib + Phenformin; first compound 0.05 µM): 0.575 | relative viability (Afatinib + Phenformin; first compound 0.1581 µM): 0.519 | relative viability (Afatinib + Phenformin; first compound 0.5 µM): 0.477

NCI-H2347
relative viability (Afatinib; 0.005 µM): 1.07 | relative viability (Afatinib; 0.01581 µM): 1.02 | relative viability (Afatinib; 0.05 µM): 0.976 | relative viability (Afatinib; 0.1581 µM): 0.961 | relative viability (Afatinib; 0.5 µM): 0.994 | relative viability (Afatinib + Trametinib; first compound 0.005 µM): 0.27 | relative viability (Afatinib + Trametinib; first compound 0.01581 µM): 0.292 | relative viability (Afatinib + Trametinib; first compound 0.05 µM): 0.277 | relative viability (Afatinib + Trametinib; first compound 0.1581 µM): 0.275 | relative viability (Afatinib + Trametinib; first compound 0.5 µM): 0.283 | relative viability (Afatinib + OSI-027; first compound 0.005 µM): 0.403 | relative viability (Afatinib + OSI-027; first compound 0.01581 µM): 0.46 | relative viability (Afatinib + OSI-027; first compound 0.05 µM): 0.393 | relative viability (Afatinib + OSI-027; first compound 0.1581 µM): 0.364 | relative viability (Afatinib + OSI-027; first compound 0.5 µM): 0.373 | relative viability (Afatinib + Phenformin; first compound 0.005 µM): 0.357 | relative viability (Afatinib + Phenformin; first compound 0.01581 µM): 0.456 | relative viability (Afatinib + Phenformin; first compound 0.05 µM): 0.31 | relative viability (Afatinib + Phenformin; first compound 0.1581 µM): 0.381 | relative viability (Afatinib + Phenformin; first compound 0.5 µM): 0.415

NCI-H2405
relative viability (Afatinib; 0.005 µM): 1.01 | relative viability (Afatinib; 0.01581 µM): 0.959 | relative viability (Afatinib; 0.05 µM): 1.08 | relative viability (Afatinib; 0.1581 µM): 0.957 | relative viability (Afatinib; 0.5 µM): 1.02 | relative viability (Afatinib + Trametinib; first compound 0.005 µM): 0.597 | relative viability (Afatinib + Trametinib; first compound 0.01581 µM): 0.482 | relative viability (Afatinib + Trametinib; first compound 0.05 µM): 0.529 | relative viability (Afatinib + Trametinib; first compound 0.1581 µM): 0.537 | relative viability (Afatinib + Trametinib; first compound 0.5 µM): 0.594 | relative viability (Afatinib + OSI-027; first compound 0.005 µM): 0.65 | relative viability (Afatinib + OSI-027; first compound 0.01581 µM): 0.67 | relative viability (Afatinib + OSI-027; first compound 0.05 µM): 0.712 | relative viability (Afatinib + OSI-027; first compound 0.1581 µM): 0.603 | relative viability (Afatinib + OSI-027; first compound 0.5 µM): 0.701 | relative viability (Afatinib + Phenformin; first compound 0.005 µM): 0.339 | relative viability (Afatinib + Phenformin; first compound 0.01581 µM): 0.413 | relative viability (Afatinib + Phenformin; first compound 0.05 µM): 0.435 | relative viability (Afatinib + Phenformin; first compound 0.1581 µM): 0.363 | relative viability (Afatinib + Phenformin; first compound 0.5 µM): 0.392

NCI-H3122
relative viability (Afatinib; 0.005 µM): 0.999 | relative viability (Afatinib; 0.01581 µM): 1.01 | relative viability (Afatinib; 0.05 µM): 1.01 | relative viability (Afatinib; 0.1581 µM): 0.929 | relative viability (Afatinib; 0.5 µM): 0.999 | relative viability (Afatinib + Trametinib; first compound 0.005 µM): 0.186 | relative viability (Afatinib + Trametinib; first compound 0.01581 µM): 0.192 | relative viability (Afatinib + Trametinib; first compound 0.05 µM): 0.224 | relative viability (Afatinib + Trametinib; first compound 0.1581 µM): 0.248 | relative viability (Afatinib + Trametinib; first compound 0.5 µM): 0.223 | relative viability (Afatinib + OSI-027; first compound 0.005 µM): 1.03 | relative viability (Afatinib + OSI-027; first compound 0.01581 µM): 0.922 | relative viability (Afatinib + OSI-027; first compound 0.05 µM): 0.977 | relative viability (Afatinib + OSI-027; first compound 0.1581 µM): 0.951 | relative viability (Afatinib + OSI-027; first compound 0.5 µM): 0.881 | relative viability (Afatinib + Phenformin; first compound 0.005 µM): 0.385 | relative viability (Afatinib + Phenformin; first compound 0.01581 µM): 0.382 | relative viability (Afatinib + Phenformin; first compound 0.05 µM): 0.415 | relative viability (Afatinib + Phenformin; first compound 0.1581 µM): 0.363 | relative viability (Afatinib + Phenformin; first compound 0.5 µM): 0.423

PC-3 [JPC-3]
relative viability (Afatinib; 0.005 µM): 0.553 | relative viability (Afatinib; 0.01581 µM): 0.406 | relative viability (Afatinib; 0.05 µM): 0.443 | relative viability (Afatinib; 0.1581 µM): 0.439 | relative viability (Afatinib; 0.5 µM): 0.469 | relative viability (Afatinib + Trametinib; first compound 0.005 µM): 0.441 | relative viability (Afatinib + Trametinib; first compound 0.01581 µM): 0.4 | relative viability (Afatinib + Trametinib; first compound 0.05 µM): 0.443 | relative viability (Afatinib + Trametinib; first compound 0.1581 µM): 0.285 | relative viability (Afatinib + Trametinib; first compound 0.5 µM): 0.438 | relative viability (Afatinib + OSI-027; first compound 0.005 µM): 0.257 | relative viability (Afatinib + OSI-027; first compound 0.01581 µM): 0.271 | relative viability (Afatinib + OSI-027; first compound 0.05 µM): 0.23 | relative viability (Afatinib + OSI-027; first compound 0.1581 µM): 0.182 | relative viability (Afatinib + OSI-027; first compound 0.5 µM): 0.238 | relative viability (Afatinib + Phenformin; first compound 0.005 µM): 0.338 | relative viability (Afatinib + Phenformin; first compound 0.01581 µM): 0.338 | relative viability (Afatinib + Phenformin; first compound 0.05 µM): 0.258 | relative viability (Afatinib + Phenformin; first compound 0.1581 µM): 0.285 | relative viability (Afatinib + Phenformin; first compound 0.5 µM): 0.306

— the supplement of paper PMC10307832
